# In article PMC12362587, “Untargeted Diversity-Oriented Synthesis for the Discovery of New Antitumor Agents: An Integrated Approach of Inverse Virtual Screening, Bioinformatics, and Omics for Target Deconvolution” (Journal of Medicinal Chemistry, 2025):
# Columns and labels:
# [1] = MTT cell viability assay; type: cell-based, human; conditions: human, HaCaT keratinocyte cells (healthy control line), 24 h, compounds 0.01–40 μM, healthy control line, read-out: In Vitro Cytotoxicity, EC50 ± SD, HaCaT
# Excerpt: (§1) Initially, we phenotypically screened the synthesized compounds over a panel of tumor cell lines composed of HEPG2, A375, SHSY5Y, MCF7, and A549 derived from liver tumor, melanoma, neuroblastoma, breast cancer, and lung adenocarcinoma, respectively. We also considered the HaCaT cell line, coming from keratinocytes, as a healthy control line. As reference, cytotoxic chemotherapeutic agent 5-fluorouracil (5-FU) has been used. The results obtained performing the MTT (3-(4,5-dimethylthiazolyl-2)-2,5-diphenyltetrazolium bromide) assay are summarized in Table .
# (§2) The human neuroblastoma SHSY5Y, melanoma A375, human breast cancer MCF7, nonsmall lung cancer A549, and human epidermal keratinocyte HaCaT cell lines were obtained from ATCC and were grown in Dulbecco’s Modified Eagle Medium (DMEM) supplemented with 10% (v/v) FBS, 2 mM L-glutamine, 100 U/mL penicillin, and 0.1 mg/mL streptomycin.
# (§3) Cell viability was established by measuring mitochondrial metabolic activity with MTT. In brief, HEPG2 (1 × 10^4 cells/well), A375 (2 × 10^3 cells/well), HaCaT (3 × 10^3 cells/well), A549 (3 × 10^3 cells/well), SHSY5Y (2 × 10^4 cells/well), and MCF 7 (5 × 10^3 cells/well) were plated into 96-well plates for 24 h, then the compounds (0.01–40 μM) were added. After 24h, cells were replaced with a fresh medium containing 0.5 mg/mL MTT. Cells were incubated 1–3 h at 37 °C, then the medium was discarded, and formazan blue crystals in the cells were dissolved in 100 μL per well of a solution containing isopropanol/HCl 0.1 M. The absorbance was measured at 570 nm using a microplate reader (Multiskan Go, Thermo Scientific, Waltham, MA, USA). Cell viability was expressed as a percentage relative to the untreated cells cultured in medium with 0.1% DMSO and set to 100%, whereas 10% DMSO was used as positive control and set to 0% of viability. The EC50 values were calculated using GraphPad Prism 8.0 software by nonlinear regression of dose–response inhibition.
# [2] = system: HEPG2; assay: MTT cell viability assay; type: cell-based; conditions: Homo sapiens, 24 h, compounds 0.01–40 μM, read-out: In Vitro Cytotoxicity, EC50 ± SD, HEPG2
# Excerpt: as §1
# The human hepatoma HEPG2 cell line was obtained from American Type Culture Collection (ATCC, Rockville, MD, USA). Cells were grown in Eagle’s Minimum Essential Medium (EMEM) supplemented with 10% (v/v) fetal bovine serum (FBS), 2 mM L-glutamine, 1% (v/v) nonessential amino acids, 100 U/mL penicillin, and 0.1 mg/mL streptomycin.
# as §3
# [3] = system: A375; assay: MTT cell viability assay; type: cell-based; conditions: Homo sapiens, A-375, 24 h, compounds 0.01–40 μM, read-out: In Vitro Cytotoxicity, EC50 ± SD, A375
# Excerpt: as §1, §2, §3
# [4] = system: A549; assay: MTT cell viability assay; type: cell-based; conditions: Homo sapiens, 24 h, compounds 0.01–40 μM, read-out: In Vitro Cytotoxicity, EC50 ± SD, A549
# Excerpt: as §1, §2, §3
# [5] = system: MCF7; assay: MTT cell viability assay; type: cell-based; conditions: Homo sapiens, 24 h, compounds 0.01–40 μM, read-out: In Vitro Cytotoxicity, EC50 ± SD, MCF7
# Excerpt: as §1, §2, §3
# [6] = system: SHSY5Y; assay: MTT cell viability assay; type: cell-based; conditions: Homo sapiens, SH-SY5Y, 24 h, compounds 0.01–40 μM, read-out: In Vitro Cytotoxicity, EC50 ± SD, SHSY5Y
# Excerpt: as §1, §2, §3
# [7] = system: HaCaT; assay: MTT cell viability assay; type: cell-based, human; conditions: in words
# Excerpt: as §1, §2, §3
# [8] = system: cancer cell lines (HEPG2, A375, SHSY5Y, MCF7, A549); assay: MTT cytotoxicity screen over panel of tumor cell lines; type: cell-based, human; conditions: in words
# Excerpt: as §1, §3
compound,measurement,setting,value
"O=c1[nH]cc(F)c(=O)[nH]1 [Compound 5-FU, 5-fluorouracil, reference compound]",EC50 at 24 h,[1],0.481 ± 0.059 µM
same,EC50,[2],0.056 ± 0.021 µM
same,EC50,[3],0.032 ± 0.011 µM
same,EC50,[4],0.047 ± 0.02 µM
same,EC50,[5],0.023 ± 0.009 µM
same,EC50,[6],0.072 ± 0.026 µM
"CC(C)C[C@@H](C(=O)NCc1ccccc1)N1Cc2ccccc2OC1=O [Compound 7, (S)-N-Benzyl-4-methyl-2-(2-oxo-2H-benzo[e][1,3]oxazin-3(4H)-yl)pentanamide]",EC50 at 24 h,[1],38.4 ± 4.54 µM
same,cytotoxicity effect over the HaCaT cell lines,[7],exhibited cytotoxicity effect
same,EC50,[2],35.6 ± 3.22 µM
same,EC50,[3],13.7 ± 1.4 µM
same,EC50,[4],> 40 µM
same,EC50,[5],20.2 ± 3.57 µM
same,EC50,[6],11.5 ± 2.05 µM
"CC(C)(C)CNC(=O)[C@H](Cc1ccccc1)N1Cc2ccccc2OC1=O [Compound 8, (S)-N-Neopentyl-2-(2-oxo-2H-benzo[e][1,3]oxazin-3(4H)-yl)-3-phenylpropanamide]",EC50 at 24 h,[1],34.8 ± 3.79 µM
same,cytotoxicity effect over the HaCaT cell lines,[7],exhibited cytotoxicity effect
same,EC50,[2],21.4 ± 4.94 µM
same,EC50,[3],17.5 ± 3.22 µM
same,EC50,[4],15 ± 2.84 µM
same,EC50,[5],13.8 ± 2.28 µM
same,EC50,[6],> 40 µM
"CC(C)COC(=O)[C@H](Cc1ccccc1)n1c(=O)[nH]c2ccccc2c1=O [Compound 22, Isobutyl (S)-2-(2,4-Dioxo-1,4-dihydroquinazolin-3(2H)-yl)-3-phenylpropanoate]",EC50 at 24 h,[1],27 ± 4.09 µM
same,EC50,[2],4.28 ± 2.04 µM
same,EC50,[3],7.12 ± 2.54 µM
same,EC50,[4],36.3 ± 5.72 µM
same,EC50,[5],11.2 ± 3.14 µM
same,EC50,[6],30.4 ± 3.92 µM
"CC(C)C[C@@H](C(=O)OCc1ccccc1)n1c(=O)[nH]c2ccccc2c1=O [Compound 23, Benzyl (S)-2-(2,4-Dioxo-1,4-dihydroquinazolin-3(2H)-yl)-4-methylpentanoate]",EC50 at 24 h,[1],10.2 ± 1.84 µM
same,EC50,[2],1.7 ± 1.05 µM
same,EC50,[3],3.88 ± 1.64 µM
same,EC50,[4],4.12 ± 1.89 µM
same,EC50,[5],12.2 ± 2.64 µM
same,EC50,[6],3.5 ± 1.41 µM
same,"selectivity, tumor cell lines versus healthy line",[8],lack of selectivity
"O=C1N[C@@H](Cc2ccccc2)C(=O)N(Cc2ccc(C(F)(F)F)cc2)c2ccccc21 [Compound 28, (S)-3-Benzyl-1-(4-(trifluoromethyl)benzyl)-3,4-dihydro-1H-benzo[e][1,4]diazepine-2,5-dione]",EC50 at 24 h,[1],26.9 ± 4.4 µM
same,EC50,[2],11.1 ± 2.25 µM
same,EC50,[3],13 ± 2.1 µM
same,EC50,[4],8.8 ± 1.37 µM
same,EC50,[5],11.7 ± 3.12 µM
same,EC50,[6],10.7 ± 1.26 µM
same,"selectivity, tumor cell lines versus healthy line",[8],lack of selectivity
"CC(C)C[C@@H]1NC(=O)c2ccccc2N(Cc2ccc(C(F)(F)F)cc2)C1=O [Compound 29, (S)-3-Isobutyl-1-(4-(trifluoromethyl)benzyl)-3,4-dihydro-1H-benzo[e][1,4]diazepine-2,5-dione]",EC50 at 24 h,[1],> 40 µM
same,EC50,[2],25.8 ± 2.74 µM
same,EC50,[3],29.4 ± 4.43 µM
same,EC50,[4],> 40 µM
same,EC50,[5],> 40 µM
same,EC50,[6],> 40 µM
"O=C1[C@H](Cc2ccccc2)N(Cc2ccc(C(F)(F)F)cc2)C(=O)c2ccccc2N1Cc1ccc(C(F)(F)F)cc1 [Compound 30, (S)-3-Benzyl-1,4-bis(4-(trifluoromethyl)benzyl)-3,4-dihydro-1H-benzo[e][1,4]diazepine-2,5-dione]",EC50 at 24 h,[1],> 40 µM
same,EC50,[2],5.06 ± 1.73 µM
same,EC50,[3],7.44 ± 2.12 µM
same,EC50,[4],> 40 µM
same,EC50,[5],13.8 ± 3.11 µM
same,EC50,[6],37.3 ± 4.45 µM
"CC(C)C[C@H]1CNc2ccccc2C(=O)N1Cc1ccc(C(F)(F)F)cc1 [Compound 33, (S)-3-Isobutyl-4-(4-(trifluoromethyl)benzyl)-1,2,3,4-tetrahydro-5H-benzo[e][1,4]diazepin-5-one]",EC50 at 24 h,[1],9.62 ± 1.12 µM
same,EC50,[2],2.69 ± 0.85 µM
same,EC50,[3],2.51 ± 1.02 µM
same,EC50,[4],10.4 ± 1.01 µM
same,EC50,[5],13.9 ± 2.78 µM
same,EC50,[6],13.5 ± 2.22 µM
same,"selectivity, tumor cell lines versus healthy line",[8],lack of selectivity
"CC(C)C[C@H]1CN(Cc2ccc(C(F)(F)F)cc2)c2ccccc2C(=O)N1Cc1ccc(C(F)(F)F)cc1 [Compound 34, (S)-3-Isobutyl-1,4-bis(4-(trifluoromethyl)benzyl)-1,2,3,4-tetrahydro-5H-benzo[e][1,4]diazepin-5-one]",EC50 at 24 h,[1],> 40 µM
same,EC50,[2],11.5 ± 2.16 µM
same,EC50,[3],5.14 ± 2.15 µM
same,EC50,[4],17.6 ± 3.65 µM
same,EC50,[5],> 40 µM
same,EC50,[6],> 40 µM
"CC(C)CN1Cc2ccccc2NC[C@@H]1Cc1ccccc1 [Compound 37, (S)-3-Benzyl-4-isobutyl-2,3,4,5-tetrahydro-1H-benzo[e][1,4]diazepine]",EC50 at 24 h,[1],> 40 µM
same,EC50,[2],> 40 µM
same,EC50,[3],8.92 ± 2.72 µM
same,EC50,[4],> 40 µM
same,EC50,[5],> 40 µM
same,EC50,[6],> 40 µM
"CC(C)C[C@H]1CN(Cc2ccc(C(F)(F)F)cc2)c2ccccc2CN1Cc1ccc(C(F)(F)F)cc1 [Compound 38, (S)-3-Isobutyl-1,4-bis(4-(trifluoromethyl)benzyl)-2,3,4,5-tetrahydro-1H-benzo[e][1,4]diazepine]",EC50 at 24 h,[1],> 40 µM
same,EC50,[2],15.4 ± 1.71 µM
same,EC50,[3],23.1 ± 3.1 µM
same,EC50,[4],37.9 ± 1.64 µM
same,EC50,[5],> 40 µM
same,EC50,[6],> 40 µM
"CC(C)C[C@@H]1NC(=O)[C@H](Cc2ccccc2)N(Cc2ccccc2)C1=O [Compound 41, (3S,6S)-1,6-Dibenzyl-3-isobutylpiperazine-2,5-dione]",EC50 at 24 h,[1],> 40 µM
same,EC50,[2],> 40 µM
same,EC50,[3],> 40 µM
same,EC50,[4],> 40 µM
same,EC50,[5],> 40 µM
same,EC50,[6],> 40 µM
same,cytotoxic activity over the cancer cell lines,[8],no activity
"CC(C)CN1c2ccccc2NC(=O)[C@@H]1Cc1ccccc1 [Compound 48, (S)-3-Benzyl-4-isobutyl-3,4-dihydroquinoxalin-2(1H)-one]",EC50 at 24 h,[1],> 40 µM
same,EC50,[2],> 40 µM
same,EC50,[3],> 40 µM
same,EC50,[4],35.5 ± 5.48 µM
same,EC50,[5],> 40 µM
same,EC50,[6],> 40 µM
same,cytotoxic activity over the cancer cell lines,[8],no activity
"CC(C)C[C@H]1C(=O)Nc2ccccc2N1Cc1ccccc1 [Compound 49, (S)-4-Benzyl-3-isobutyl-3,4-dihydroquinoxalin-2(1H)-one]",EC50 at 24 h,[1],> 40 µM
same,EC50,[2],> 40 µM
same,EC50,[3],> 40 µM
same,EC50,[4],> 40 µM
same,EC50,[5],> 40 µM
same,EC50,[6],> 40 µM
same,cytotoxic activity over the cancer cell lines,[8],no activity
"CC(C)C[C@@H]1NC(=O)OCc2ccccc2NC1=O [Compound 52, (S)-3-Isobutyl-1,3,4,7-tetrahydrobenzo[g][1,3,6]oxadiazonine-2,5-dione]",EC50 at 24 h,[1],> 40 µM
same,EC50,[2],> 40 µM
same,EC50,[3],> 40 µM
same,EC50,[4],> 40 µM
same,EC50,[5],> 40 µM
same,EC50,[6],> 40 µM
same,cytotoxic activity over the cancer cell lines,[8],no activity
"CC(C)COC(=O)[C@H](Cc1ccccc1)N1Cc2ccccc2NC1=O [Compound 64, Isobutyl (S)-2-(2-Oxo-1,4-dihydroquinazolin-3(2H)-yl)-3-phenylpropanoate]",EC50 at 24 h,[1],24.4 ± 4.51 µM
same,EC50,[2],7.97 ± 2.45 µM
same,EC50,[3],8.64 ± 1.66 µM
same,EC50,[4],32.3 ± 5.76 µM
same,EC50,[5],9.55 ± 1.05 µM
same,EC50,[6],28.2 ± 3.2 µM
same,"selectivity, tumor cell lines versus healthy line",[8],lack of selectivity
